Like-named read-outs stand apart in the source and are kept apart here.
Key:
bcl-2 = test: Expression of the antiapoptotic gene bcl-2 in the hippocampus of ovariectomised rats; type: in vivo, Ratten; conditions: female ovariectomised rats; vs OVX control (p<0.01); Abbildung 4
[1] = system: Oxytocin (Nachweis der OT mRNA); test: Induction of the estrogen-dependent oxytocin gene (OT mRNA) in the brain of ovariectomised rats; type: in vivo, Ratten; conditions: brain of female ovariectomised rats; Abbildung 3
Description: (§1) In Abbildung 3 werden zwei weitere Beispiele für typische Estrogenwirkungen im Gehirn von weiblichen, ovarektomierten Ratten dargestellt. […] (* Bedeutet statistisch signifikant gegenüber der Kontrollgruppe (p<0.01))

[2] = system: Corticotropin-Releaseinghormon (Nachweis der CRH mRNA); test: Induction of the estrogen-dependent CRH gene (CRH mRNA) in the brain of ovariectomised rats; type: in vivo, Ratten; conditions: brain of female ovariectomised rats; Abbildung 3
Description: as §1

[3] = Stabilisation of the unstable steroids in drug formulations by stabilisers; type: physicochemical
Description: Eine hinreichende Haltbarkeit der an sich sehr instabilen Steroide in Arzneimittelformulierungen wird insbesondere erreicht, wenn ein Stabilisator vorliegt. […] In einer bevorzugten Ausführungsform des erfindungsgemäßen Arzneimittels wird deshalb das Steroid mit Ascorbinsäure stabilisiert. […] Die Konzentration des Stabilisators Ascorbinsäure ist vom Gehalt des Steroids abhängig. Je nach dessen Gehalt werden bei Weichgelatinekapseln 0,1 % bis 1 % Ascorbinsäure, bezogen auf die Füllmasse, eingesetzt.

[4] = Clinical study in healthy women: serum testosterone after oral DHEA, with dexamethasone suppression; type: in vivo, Frauen; conditions: single dose of dexamethasone, 100 mg DHEA oral, Abbildung 5
Description: In Abbildung 5 werden daher Ergebnisse einer klinischen Studie mit gesunden Frauen dargestellt. Zur kurzzeitigen Unterdrückung der körpereigenen Steroidproduktion erhielten die Probandinnen einmalig Dexamethason. […] Damit ist der Nachweis geführt, daß DHEA bei Frauen nach oraler Aufnahme im Körper zu dem sehr wirksamen Androgen Testosteron umgewandelt wird, d.h. DHEA ist bei Frauen ein Prodrug für Testosteron.

[5] = 100 mg/Tag oral; Arlt et al., New Engl J Med 1999; cited from earlier work
[6] = system: induzierbaren Stickstoffmonoxid-Oxidase (iNOS); test: Inhibition of NO release (iNOS) in the brain of ovariectomised rats; type: in vivo, Ratten; conditions: female ovariectomised rats; compared with 17β-Estradiol; Abbildung 2; significant vs OVX control (p<0.01)
Description: Eine der typischen Estrogenwirkungen im Gehirn ist die Hemmung der induzierbaren […] (iNOS). […] Die Kontrollgruppe sind ovarektomierte Tiere (OVX), die nur mit dem Lösungsmittel behandelt worden sind. (* Bedeutet statistisch signifikant gegenüber der Kontrollgruppe (p<0.01))

Uterus = test: Estrogenic effect on the uterus (uterine mass) of ovariectomised rats; type: in vivo, Ratten; conditions: female ovariectomised rats, in contrast to 17β-Estradiol; for estrogene Wirkung auf den Uterus (Zunahme der Uterusmasse): Abbildung 3

Compound	Expression des antiapoptotischen Gens bcl-2 im Hippocampus (bcl-2)	Induktion der estrogenabhängigen Gene für Oxytocin (OT mRNA) [1]	Induktion der estrogenabhängigen Gene für Corticotropin-Releaseinghormon (CRH mRNA) [2]	stabilisierende Wirkung (Haltbarkeit der Steroide in Arzneimittelformulierungen) [3]	other results
C[C@]12CC[C@@H]3c4ccc(O)cc4CC[C@H]3[C@@H]1CC[C@H]2O [17α-Estradiol]	im Gegensatz				
C[C@]12CC[C@@H]3c4ccc(O)cc4CC[C@H]3[C@@H]1CC[C@@H]2O [17β-Estradiol, reference compound]	signifikant erhöht	gelingt	gelingt		
O=C1O[C@H]([C@@H](O)CO)C(O)=C1O [Ascorbinsäure]					stabilisierende Wirkung (Haltbarkeit der Steroide in Arzneimittelformulierungen) ([3]; stabiliser added to the steroid formulation): besonders wirksam
CCCCCCCCCCCCCCCC(=O)OC[C@H](O)[C@H]1OC(=O)C(O)=C1O [Ascorbylpalmitat]				deutlich weniger effektiv	
COc1ccc(O)c(C(C)(C)C)c1 [Butylhydroxyanisol]				deutlich weniger effektiv	
Cc1cc(C(C)(C)C)c(O)c(C(C)(C)C)c1 [Butylhydroxytoluol]				deutlich weniger effektiv	
C[C@]12CC[C@H](O)CC1=CC[C@@H]1[C@@H]2CC[C@]2(C)C(=O)CC[C@@H]12 [DHEA, Dehydroepiandrosteron]					Serum-Testosteronkonzentrationen [4]: auf das Niveau der unbehandelten Kontrollen hebt; unerwünschte Virilisierungserscheinungen [5]: keine unerwünschten Virilisierungserscheinungen
C[C@]12CCC3=C(CCc4cc(O)ccc43)[C@@H]1CC[C@H]2O [J 811, Estra-1,3,5(10),8-tetraen-3,17α-diol]		gelingt	gelingt		Hemmung der Freisetzung von NO [6]: genauso stark wie bei dem wichtigsten körpereigenen Estrogen, dem 17β-Estradiol; estrogene Wirkung auf den Uterus (Zunahme der Uterusmasse) (Uterus): nicht nachweisbar
C[C@]12CCC3=C(CCc4cc(O)ccc43)[C@@]13C[C@H]3C[C@H]2O [J 861, 14α, 15α-Methylenestra-1,3,5(10),8-tetraen-3,17α-diol]	signifikant erhöht	gelingt	gelingt		Hemmung der Freisetzung von NO [6]: genauso stark wie bei dem wichtigsten körpereigenen Estrogen, dem 17β-Estradiol; estrogene Wirkung auf den Uterus (Zunahme der Uterusmasse) (Uterus): nicht nachweisbar; Wirkung auf den Uterus (Uterus; Abbildung 4): keinerlei Wirkung auf den Uterus
